# How the values were obtained:
# [1] = tested on: MV4-11 cells; assay: MV4-11 Cell Cytotoxicity Assay; assay type: cell-based, human; conditions: human, MV4-11 cells, CCK-8
# Source text: % Inhibition=100−(D−B)/(S−B)*100%.
# S: The absorbance of the maximum (cells with DMSO)
# B: The absorbance of the minimum (medium with DMSO)
# [2] = target: HSP90α (Homo sapiens, UniProt P07900); assay: HSP90α Binding Fluorescent Polarization (FP) Assay; conditions: competition with FITC-geldanamycin; read-out: HSP90 Binding Potency
# Description: HSP90α Binding Fluorescent Polarization (FP) Assay
# A master mix was prepared with assay buffer, BSA and FITC-geldanamycin. In a 96-well plate, a serial 3-fold dilution of each compound was prepared ranging from 40 μM down until 2.0 nM. Also in a 96-well plate, recombinant HSP90α protein was diluted to 28 μg/ml. Then, in a 384-well plate, 10 μl of master mix and 5 μl of compound dilution were added per well to duplicate wells and mixed by brief shaking. Then 5 μl of diluted HSP90α protein was added per well, mixed by brief shaking, incubated at 25° C. for 30, 60 and 120 min and fluorescence was measured on an EnVision Plate Reader. Background-subtracted mP values were calculated from EnVision raw data and a four-parameter “log[inhibitor] vs. response” curve was fitted using GraphPad Prism 7.0.
# [3] = target: T1, BRD4 (BD1+BD2) (Homo sapiens, UniProt O60885); conditions: read-out: BRD4 Binding Potency
# T1 construct: 1.8 μg/ml recombinant BRD4 (BD1+BD2 domains) protein
# Description: A master mix was prepared with assay buffer, 1.8 μg/ml recombinant BRD4 (BD1+BD2 domains) protein, and 200-fold dilutions of Tb-labeled donor and dye-labeled acceptor. 40-fold dilutions of acetylated and non-acetylated ligands were prepared in 1×BRD TR-FRET assay buffer. Also, a serial 3-fold dilution of each compound was prepared ranging from 40 μM down until 2.0 nM. In a 384-well plate, 5 μl diluted ligand and 5 μl of compound dilution were added per well to duplicate wells and mixed by brief shaking. Then 10 μl of master mix was added per well, mixed by brief shaking, incubated at 25° C. for 2 hr and fluorescence was measured on an EnVision Plate Reader. The 665 nm/615 nm ratio was calculated from EnVision raw data. Data were normalized using whole-plate averages of “positive” and “negative” readings. A four-parameter “log[inhibitor] vs. response” curve was fitted using GraphPad Prism 7.0.
SMILES,IC50 at 72 h [1],IC50 [2],IC50 [3]
"Cc1sc2c(c1C)C(c1ccc(Cl)cc1)=N[C@@H](CC(=O)N1CCC(CN3CCN(Cc4ccc(-n5c(C(=O)NC(C)C)nnc5-c5cc(C(C)C)c(O)cc5O)cc4)CC3)CC1)c1nnc(C)n1-2 [Compound 108, (S)-4-(4-((4-((1-(2-(4-(4-chlorophenyl)-2,3,9-trimethyl-6H-thieno[3,2-f][1,2,4]triazolo[4,3-a][1,4]diazepin-6-yl)acetyl)piperidin-4-yl)methyl)piperazin-1-yl)methyl)phenyl)-5-(2,4-dihydroxy-5-isopropylphenyl)-N-isopropyl-4H-1,2,4-triazole-3-carboxamide, trifluoroacetic acid]",100 to 1000 nM,> 1000 nM,> 1000 nM
"Cc1sc2c(c1C)C(c1ccc(Cl)cc1)=N[C@@H](CC(=O)N1CCC(CN3CCN(Cc4ccc(-n5c(C(N)=O)nnc5-c5ccc(O)cc5O)cc4)CC3)CC1)c1nnc(C)n1-2 [Compound 112, (S)-4-(4-((4-((1-(2-(4-(4-chlorophenyl)-2,3,9-trimethyl-6H-thieno[3,2-f][1,2,4]triazolo[4,3-a][1,4]diazepin-6-yl)acetyl)piperidin-4-yl)methyl)piperazin-1-yl)methyl)phenyl)-5-(2,4-dihydroxyphenyl)-4H-1,2,4-triazole-3-carboxamide, trifluoroacetic acid]",< 100 nM,100 to 1000 nM,< 100 nM
"Cc1sc2c(c1C)C(c1ccc(Cl)cc1)=N[C@@H](CC(=O)NCC(=O)NCCOc1ccc(-n3c(O)nnc3-c3cc(C(C)C)c(O)cc3O)cc1)c1nnc(C)n1-2 [Compound 54, (S)-2-(4-(4-chlorophenyl)-2,3,9-trimethyl-6H-thieno[3,2-f][1,2,4]triazolo[4,3-a][1,4]diazepin-6-yl)-N-(2-((2-(4-(3-(2,4-dihydroxy-5-isopropylphenyl)-5-hydroxy-4H-1,2,4-triazol-4-yl)phenoxy)ethyl)amino)-2-oxoethyl)acetamide]",100 to 1000 nM,< 100 nM,100 to 1000 nM
"Cc1sc2c(c1C)C(c1ccc(Cl)cc1)=N[C@@H](CC(=O)NCCc1ccc(CN3CCC(Cc4ccc(-n5c(O)nnc5-c5cc(C(C)C)c(O)cc5O)cc4)CC3)cc1)c1nnc(C)n1-2 [Compound 98, (S)-2-(4-(4-chlorophenyl)-2,3,9-trimethyl-6H-thieno[3,2-f][1,2,4]triazolo[4,3-a][1,4]diazepin-6-yl)-N-(4-((4-(4-(3-(2,4-dihydroxy-5-isopropylphenyl)-5-hydroxy-4H-1,2,4-triazol-4-yl)benzyl)piperidin-1-yl)methyl)phenethyl)acetamide, trifluoroacetic acid]",< 100 nM,100 to 1000 nM,100 to 1000 nM
"Cc1sc2c(c1C)C(c1ccc(Cl)cc1)=N[C@@H](CC(=O)N1CCC(CN3CCN(Cc4ccc(-n5c(S)nnc5-c5cc(C(C)C)c(O)cc5O)cc4)CC3)CC1)c1nnc(C)n1-2 [Compound 12, 2-((6S)-4-(4-chlorophenyl)-2,3,9-trimethyl-6H-thieno[3,2-f][1,2,4]triazolo[4,3-a][1,4]diazepin-6-yl)-1-(4-((4-(4-(3-(2,4-dihydroxy-5-isopropylphenyl)-5-mercapto-4H-1,2,4-triazol-4-yl)benzyl)piperazin-1-yl)methyl)piperidin-1-yl)ethanone, trifluoroacetic acid]",< 100 nM,< 100 nM,> 1000 nM
"CCN(CC)CCNC(=O)c1nnc(-c2ccc(O)cc2O)n1-c1ccc(CN2CCN(CC3CCN(C(=O)C[C@@H]4N=C(c5ccc(Cl)cc5)c5c(sc(C)c5C)-n5c(C)nnc54)CC3)CC2)cc1 [Compound 111, (S)-4-(4-((4-((1-(2-(4-(4-chlorophenyl)-2,3,9-trimethyl-6H-thieno[3,2-f][1,2,4]triazolo[4,3-a][1,4]diazepin-6-yl)acetyl)piperidin-4-yl)methyl)piperazin-1-yl)methyl)phenyl)-N-(2-(diethylamino)ethyl)-5-(2,4-dihydroxyphenyl)-4H-1,2,4-triazole-3-carboxamide, trifluoroacetic acid]",< 100 nM,100 to 1000 nM,< 100 nM
"Cc1sc2c(c1C)C(c1ccc(Cl)cc1)=N[C@@H](CC(=O)N1CCC(N3CCN(c4ccc(-n5c(O)nnc5-c5cc(C(C)C)c(O)cc5O)cc4)CC3)CC1)c1nnc(C)n1-2 [Compound 43, 2-((6S)-4-(4-chlorophenyl)-2,3,9-trimethyl-6H-thieno[3,2-f][1,2,4]triazolo[4,3-a][1,4]diazepin-6-yl)-1-(4-(4-(4-(3-(2,4-dihydroxy-5-isopropylphenyl)-5-hydroxy-4H-1,2,4-triazol-4-yl)phenyl)piperazin-1-yl)piperidin-1-yl)ethanone, trifluoroacetic acid]",< 100 nM,100 to 1000 nM,100 to 1000 nM
"CCCc1cc(-c2nnc(C(=O)NCCN3CCCCC3)n2-c2ccc(CN3CCN(CC4CCN(C(=O)C[C@@H]5N=C(c6ccc(Cl)cc6)c6c(sc(C)c6C)-n6c(C)nnc65)CC4)CC3)cc2)c(O)cc1O [Compound 123, (S)-4-(4-((4-((1-(2-(4-(4-chlorophenyl)-2,3,9-trimethyl-6H-thieno[3,2-f][1,2,4]triazolo[4,3-a][1,4]diazepin-6-yl)acetyl)piperidin-4-yl)methyl)piperazin-1-yl)methyl)phenyl)-5-(2,4-dihydroxy-5-propylphenyl)-N-(2-(piperidin-1-yl)ethyl)-4H-1,2,4-triazole-3-carboxamide, trifluoroacetic acid]",< 100 nM,100 to 1000 nM,< 100 nM
"Cc1sc2c(c1C)C(c1ccc(Cl)cc1)=NC(CC(=O)N1CCC(Cc3ccc(CN(C)Cc4ccc(-n5c(C(=O)NCC(F)(F)F)nnc5-c5cc(C(C)C)c(O)cc5O)cc4)cc3)CC1)c1nnc(C)n1-2 (stereo in doubt) [Compound 84, (S)-4-(4-(((4-((1-(2-(4-(4-chlorophenyl)-2,3,9-trimethyl-6H-thieno[3,2-f][1,2,4]triazolo[4,3-a][1,4]diazepin-6-yl)acetyl)piperidin-4-yl)methyl)benzyl)(methyl)amino)methyl)phenyl)-5-(2,4-dihydroxy-5-isopropylphenyl)-N-(2,2,2-trifluoroethyl)-4H-1,2,4-triazole-3-carboxamide, trifluoroacetic acid]",< 100 nM,100 to 1000 nM,> 1000 nM
"CCc1cc(-c2nnc(C(=O)NCCN(CC)CC)n2-c2ccc(CN3CCN(CC4CCN(C(=O)C[C@@H]5N=C(c6ccc(Cl)cc6)c6c(sc(C)c6C)-n6c(C)nnc65)CC4)CC3)cc2)c(O)cc1O [Compound 104, (S)-4-(4-((4-((1-(2-(4-(4-chlorophenyl)-2,3,9-trimethyl-6H-thieno[3,2-f][1,2,4]triazolo[4,3-a][1,4]diazepin-6-yl)acetyl)piperidin-4-yl)methyl)piperazin-1-yl)methyl)phenyl)-N-(2-(diethylamino)ethyl)-5-(5-ethyl-2,4-dihydroxyphenyl)-4H-1,2,4-triazole-3-carboxamide, trifluoroacetic acid]",< 100 nM,100 to 1000 nM,< 100 nM
"Cc1sc2c(c1C)C(c1ccc(Cl)cc1)=N[C@@H](CC(=O)N(C)CCOc1ccc(CN(C)Cc3ccc(-n4c(O)nnc4-c4cc(C(C)C)c(O)cc4O)cc3)cc1)c1nnc(C)n1-2 [Compound 99, (S)-2-(4-(4-chlorophenyl)-2,3,9-trimethyl-6H-thieno[3,2-f][1,2,4]triazolo[4,3-a][1,4]diazepin-6-yl)-N-(2-(4-(((4-(3-(2,4-dihydroxy-5-isopropylphenyl)-5-hydroxy-4H-1,2,4-triazol-4-yl)benzyl)(methyl)amino)methyl)phenoxy)ethyl)-N-methylacetamide, formic acid]",< 100 nM,100 to 1000 nM,> 1000 nM
COc1cccc(-c2cc(C(=O)Nc3ccc(-c4ccc(OC5CCN(C)CC5)cc4OCCN(C)C(=O)C[C@@H]4N=C(c5ccc(Cl)cc5)c5c(sc(C)c5C)-n5c(C)nnc54)cc3)ccc2OC)c1 [Compound 136],100 to 1000 nM,> 1000 nM,100 to 1000 nM
"Cc1sc2c(c1C)C(c1ccc(Cl)cc1)=N[C@@H](CC(=O)NCC(=O)NCCOCCOc1ccc(-n3c(O)nnc3-c3cc(C(C)C)c(O)cc3O)cc1)c1nnc(C)n1-2 [Compound 55, (S)-2-(4-(4-chlorophenyl)-2,3,9-trimethyl-6H-thieno[3,2-f][1,2,4]triazolo[4,3-a][1,4]diazepin-6-yl)-N-(2-((2-(2-(4-(3-(2,4-dihydroxy-5-isopropylphenyl)-5-hydroxy-4H-1,2,4-triazol-4-yl)phenoxy)ethoxy)ethyl)amino)-2-oxoethyl)acetamide]",100 to 1000 nM,100 to 1000 nM,100 to 1000 nM

# — US20220168427A1 (Ranok Therapeutics (Hangzhou) Co. Ltd., priority 2019, published 2022)
